Measured values as given in paper PMC7016953 (Cells, 2020).

Tests used:
TRPC3 [1] = target: T1, TRPC3 (Homo sapiens, UniProt Q13507); assay: Fluo-4 Ca2+ influx assay in HEK TRPC3-YFP cell suspensions; type: cell-based
T1 construct: expressed in transfected cells
T1 sequence (Q13507 1-848 isoform Q13507-3): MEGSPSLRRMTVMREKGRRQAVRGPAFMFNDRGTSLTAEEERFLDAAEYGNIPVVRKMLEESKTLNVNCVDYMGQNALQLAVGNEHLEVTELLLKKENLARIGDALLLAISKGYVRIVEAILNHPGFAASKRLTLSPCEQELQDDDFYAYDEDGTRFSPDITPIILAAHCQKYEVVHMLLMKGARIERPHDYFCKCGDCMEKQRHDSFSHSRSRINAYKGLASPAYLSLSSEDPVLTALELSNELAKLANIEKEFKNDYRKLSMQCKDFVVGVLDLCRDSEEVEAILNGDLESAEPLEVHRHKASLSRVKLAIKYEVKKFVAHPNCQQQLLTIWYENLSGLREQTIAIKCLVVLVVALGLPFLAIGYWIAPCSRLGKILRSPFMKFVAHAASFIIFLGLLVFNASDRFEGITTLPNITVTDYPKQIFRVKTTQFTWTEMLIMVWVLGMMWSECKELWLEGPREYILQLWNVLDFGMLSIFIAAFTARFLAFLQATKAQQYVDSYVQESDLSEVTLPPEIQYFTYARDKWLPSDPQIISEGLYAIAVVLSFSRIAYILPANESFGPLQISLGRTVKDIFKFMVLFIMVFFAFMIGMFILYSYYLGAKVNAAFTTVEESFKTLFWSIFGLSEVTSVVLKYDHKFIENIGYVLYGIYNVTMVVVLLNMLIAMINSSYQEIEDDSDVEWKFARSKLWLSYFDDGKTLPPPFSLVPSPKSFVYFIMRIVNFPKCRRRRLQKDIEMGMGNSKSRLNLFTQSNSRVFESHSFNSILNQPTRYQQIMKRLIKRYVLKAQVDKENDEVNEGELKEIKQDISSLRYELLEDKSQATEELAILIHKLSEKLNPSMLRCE

hTRPC6-YFP = tested on: T2, hTRPC6-YFP; assay: Fluo-4 Ca2+ influx assay in HEK293 cells stably expressing TRPC6; type: cell-based, human
T2 construct: expressed in transfected cells

hTRPC7-YFP = tested on: T3, hTRPC7-YFP; assay: Fluo-4 Ca2+ influx assay in HEK293 cells stably expressing TRPC7; type: cell-based, human; conditions: fluo-4 concentration response analysis
T3 construct: expressed in transfected cells

[2] = tested on: T4, heteromeric TRPC3:TRPC6 channel complexes; assay: Fluo-4 Ca2+ influx assay in HEK293 cells co-expressing TRPC3 and TRPC6; type: cell-based; conditions: fluo-4 concentration response analysis
T4 construct: expressed in transfected cells; host or cells: HEK293, stably co-transfected
Experimental: (§1) All fluorometric Ca^2+ assays were done in (4-(2-hydroxyethyl)-1-piperazineethanesulfonic acid) (HEPES)-buffered saline (HBS), containing 132 mM NaCl, 6 mM KCl, 1 mM MgCl2, 1 mM CaCl2, 5.5 mM D-glucose, 10 mM HEPES, and 0.035% bovine serum albumin (BSA) adjusted to pH 7.4 with NaOH. For measurements in Ca^2+-free bath solutions, a modified HBS without CaCl2 was supplemented with 200 µM ethylene glycol-bis(β-aminoethyl ether)-N,N,N′,N′-tetraacetic acid (EGTA).
(§2) The primary compound screen and the generation of concentration response curves in HEK293 cells or in PC12 cells were performed by using a custom-made fluorescence plate imager built into a robotic liquid handling station equipped with a 96-tip multichannel head (Freedom Evo 150, Tecan, Männedorf, Switzerland) as described previously. To this end, trypsinized cell suspensions were loaded with 4 µM fluo-4/AM (Invitrogen, Thermo Fisher Scientific, Waltham, MA, U.S.A.) in cell culture medium for 30 min at 37 °C. After brief centrifugation, cells were resuspended in HBS and dispensed into black pigmented, clear-bottom 384-well plates (Greiner µClear, Frickenhausen, Germany). Plates were mounted on the imager, and fluorescence signals were recorded with a cooled Zyla 5.5 camera (Andor, Belfast, UK) through a 515 nm long pass filter. The image acquisition was controlled by the µManager software (http://micro-manager.org), and excitation with a LED array (470 nm) was synchronized by the camera trigger output. After baseline recording for about 60 s, the compound libraries or serial dilutions of activators or inhibitors were added to the cells by the liquid handling device. When inhibitory potencies were evaluated, a second pipetting step with the respective reference agonist was performed. Fluorescence intensities were calculated from image stacks for each well with ImageJ (National Institutes of Health, Bethesda, MD, U.S.A.), corrected for background signals, and normalized to the initial intensities (F/F0). […]

parental HEK293 cells = assay: [Ca2+]i response in un-transfected parental HEK293 cells; type: cell-based, human; conditions: concentrations up to 50 µM
Experimental: as §1, §2

TRPC3 [3] = tested on: T5, TRPC3; assay: Microfluorometric single-cell [Ca2+]i analysis, fura-2-loaded HEK cells stably expressing TRPC3; type: cell-based, human; conditions: 100 µM OAG applied sequentially; also in HEK cells expressing mouse TRPC3
T5 construct: expressed in transfected cells
Experimental: (§3) The microfluorometric single-cell [Ca^2+]i analysis was performed on an inverted epifluorescence microscope (Carl Zeiss, Jena, Germany) and calibrated as described. Cells were grown on 25 mm coverslips and loaded with 4 µM fura-2/AM (AAT Bioquest, Sunnyvale, CA, U.S.A.) in HBS containing 0.2% BSA for 30 min at 37 °C. After gently rinsing the coverslips with HBS, coverslips were mounted in a bath chamber and superfused with HBS containing 0.035% BSA.
Figure 2 Microfluorometric single-cell analysis of artemisinin-induced increases in [Ca^2+]i in fura-2-loaded HEK cells stably expressing TRPC3 (A), TRPC6 (B), or TRPC7 (C). […] Experiments were performed either in standard bath solution, containing 1 mM Ca^2+ (black lines and bars), or in a nominally Ca^2+-free HBS buffer, supplemented with 200 µM EGTA (grey lines and bars). Time courses of averaged responses (left), and statistical analysis of 6–11 independent imaging experiments with means and S.D. (right) are shown. Significant differences (p < 0.05, Student´s t-test with paired data: #, with unpaired data: *) are marked for the indicated comparisons; n.s.: difference is statistically not significant.

TRPC6 = tested on: T6, TRPC6; assay: Whole-cell patch-clamp recordings in HEK TRPC6-YFP cells; type: cell-based, human; conditions: 50 µM OAG, subsequent exposure
T6 construct: expressed in transfected cells
Experimental: (§4) The recordings of TRPC3, TRPC6, or TRPC7 membrane currents in HEK293 or PC12 cells were realized by using a Multiclamp 700B amplifier with a Digidata 1440A digitizer controlled by the PClamp 10 software (all Molecular Devices, Sunnyvale, CA, U.S.A.). Recordings were obtained at room temperature either in the whole-cell or in an outside-out configuration as indicated. Cells were seeded as described above, but at lower density, mounted in a chamber (Warner Instruments, Hamden, CT; U.S.A.), placed onto the stage of an inverted microscope, and perfused with required solution. The standard extracellular solution contained 140 mM NaCl, 5 mM CsCl, 2 mM MgCl2, 1 mM CaCl2, 10 mM HEPES, and 0.035% BSA adjusted to pH 7.4 with NaOH. The composition of standard intracellular solution was 140 mM CsCl, 1 mM MgCl2, 5 mM EGTA, and 10 mM HEPES adjusted to pH 7.25 with CsOH; the osmolarity was 295 mOsm l^−1. In outside-out measurements, the pipette solution contained 5 mM EGTA and 1.1 mM CaCl2 to achieve a calculated free Ca^2+ concentration of 100 nM.
(§5) Patch pipettes were pulled from borosilicate glass capillaries BG150F-8P (Science Products, Hofheim, Germany) with a PIP6 pipette puller (HEKA Elektronik, Lambrecht, Germany). […] In all whole-cell measurements, the series resistance was lower than 13 MΩ, and compensated by 70%. […]

TRPC7 = tested on: T7, TRPC7; assay: Whole-cell patch-clamp recordings in HEK TRPC7-YFP cells; type: cell-based, human; conditions: 50 µM OAG, subsequent exposure
T7 construct: expressed in transfected cells
Experimental: as §4, §5

[4] = tested on: PC12 cells (native TRPC3 channel complexes); assay: [Ca2+]i analysis in fura-2-loaded PC12 cells; type: cell-based, rat; conditions: artemisinin 50 or 100 µM; 6–12 experiments for each compound
Experimental: Human embryonic kidney 293 (HEK293) cells were stably transfected with expression plasmids that encode hTRPC3-YFP, hTRPC6-YFP, hTRPC7-YFP, mTRPC4ß-YFP, rTRPV1-CFP, rTRPV2-YFP, rTRPV3-YFP, mTRPV4-YFP, or hTRPM2 as previously described. Cell lines were cultured in Earle’s minimum essential medium (MEM; Sigma, Munich, Germany), supplemented with 10% fetal calf serum (Gibco Thermo Fisher Scientific, Darmstadt, Germany), 2 mM L-glutamine, and required concentrations of geneticin in a range of 0.4–1 mg/mL. A HEK293mTRPC5-YFP cell line was maintained and induced as described before. The HEK293mTRPM3α2 cells (expressing the Ca^2+-permeable main variant of mouse TRPM3) were kindly provided by Johannes Oberwinkler (Marburg, Germany), the HEK293hTRPA1 cells that constitutively overexpress the human TRPA1 were from Dr. Natalie Tigue and Dr. Steve Moore (GlaxoSmithKline, Harlow, UK). With the exception of mTRPC5-YFP, all cell lines constitutively overexpress the respective TRP channel under the control of a cytomegalovirus (CMV) promoter. A HEK cell line stably expressing the human protein kinase C (PKC) ε C-terminally tagged with YFP [13] was generated and maintained in the same medium as HEKTRPC3-YFP cells. PC12 cells were cultured in RPMI-1640 (Sigma, Munich, Germany) with 10% fetal calf serum, 2 mM L-glutamine, 100 U/mL penicillin, and 0.1 mg/mL streptomycin. For electrophysiological and single cell [Ca^2+]i imaging experiments, PC12 cells were plated onto 25 mm poly-L-lysine-coated glass coverslips and measured 24–48 h after seeding. All cells were maintained at 37 °C in a 5% CO2-aerated, humidified atmosphere.
as §3
Figure 7 Expression of TRPC3 and functional responses to TRPC activators in PC12 rat pheochromocytoma cells. (A) Immunofluorescence analysis of TRPC3 (green channel) and tyrosine hydroxylase (TH; red channel) expression in PC12 cells. Nuclei were counterstained with DAPI (blue channel). Bars: 20 µm scale. Time course of the [Ca^2+]i (B) and averaged basal and peak [Ca^2+]i values (C) were recorded by microfluorometric analysis in fura-2-loaded PC12 cells grown on glass coverslips. […] Data represent averages (B) or means and S.D. (C) of 6–12 imaging experiments for each compound. Significant increases compared to the respective basal values are indicated (#: p < 0.05; Student´s t-test for paired data).

## C[C@H]1[C@@H](O)O[C@@H]2O[C@@]3(C)CC[C@H]4[C@H](C)CC[C@@H]1[C@@]24OO3 [artenimol]
TRPC3 [1]; 20 µM, acute addition
  fluorescence signal of the Ca2+ indicator in primary screen: immediate and transient increase in the fluorescence signal
TRPC3 [1]; fluo-4, up to 200 µM, compared with solvent (DMSO)
  TRPC3 activation in concentration response analysis: did not reach saturation
hTRPC6-YFP; fluo-4 concentration response analysis
  effect on TRPC6: marked preference to activate TRPC3, but not the closely related TRPC6 channel
hTRPC6-YFP; primary screen, 20 µM
  signal in counterscreen with TRPC6-expressing cells: no signals
hTRPC7-YFP
  effect on TRPC7: remained largely unaffected
[2]
  response of cells stably transfected with both TRPC3 and TRPC6: in a very similar fashion as HEKTRPC3-YFP cells
Parental HEK293 cells
  response of un-transfected parental HEK293 cells: no response

## CCCCCCCC/C=C\CCCCCCCC(=O)OC[C@H](CO)OC(C)=O [OAG, 1-oleoyl-2-acetyl-sn-glycerol]
TRPC3 [1]; 30 or 100 µM artemisinin co-applied
  EC50 of OAG in the presence of artemisinin: shifted to lower concentrations
TRPC3 [3]
  further increase in [Ca2+]i after challenge with maximally effective artemisinin: failed to induce a further increase in [Ca^2+]i
TRPC6
  current densities in TRPC6-expressing HEK cells: caused increases in current densities
TRPC7
  current densities in TRPC7-expressing HEK cells: caused increases in current densities
[4]
  [Ca2+]i in fura 2-loaded PC12 cells: significant increases in [Ca^2+]i
